From US7977332B2, “Insecticidal N-(heteroarylalkyl)alkanediamine derivatives” (FMC Corporation, priority 2003, dated 2011)

System: tobacco budworm (Heliothis virescens [Fabricius])
Test: surface-treated diet test against tobacco budworm
Type: in vivo
Settings: 0.25 millimolar on the surface of the diet, second instar larvae, five-day exposure; for Percent Growth Inhibition: insect weight relative to untreated controls
Experimental: Candidate insecticides were evaluated for activity against the tobacco budworm (Heliothis virescens [Fabricius]) in a surface-treated diet test.
In this test one mL of molten (65-70° C.) wheat germ-based artificial diet was pipetted into each well of a four by six (24 well) multi-well plate (ID# 430345-15.5 mm dia.×17.6 mm deep; Corning Costar Corp., One Alewife Center, Cambridge, Mass. 02140). The diet was allowed to cool to ambient temperature before treatment with candidate insecticide.
For a determination of insecticidal activity, solutions of the candidate insecticides were prepared for testing using a Packard 204DT Multiprobe® Robotic System (Packard Instrument Company, 800 Research Parkway, Meriden, Conn. 06450), in which the robot first diluted a standard 50 millimolar DMSO solution of candidate insecticide with a 1:1 water/acetone solution (V/V) in a ratio of 1:7 stock solution to water/acetone. The robot subsequently pipetted 40 microliters of the so-prepared solution onto the surface of the diet in each of three wells in the 24 multi-well plate. The process was repeated with solutions of seven other candidate insecticides. Once treated, the contents of the multi-well plate were allowed to dry, leaving 0.25 millimoles of candidate insecticide on the surface of the diet, or a concentration of 0.25 millimolar. Appropriate untreated controls containing only DMSO on the diet surface were also included in this test.
For evaluations of the insecticidal activity of a candidate insecticide at varying rates of application, the test was established as described above using sub-multiples of the standard 50 millimolar DMSO solution of candidate insecticide. For example, the standard 50 millimolar solution was diluted by the robot with DMSO to give 5, 0.5, 0.05, 0.005, 0.0005 millimolar, or more dilute solutions of the candidate insecticide. In these evaluations there were six replicates of each rate of application placed on the surface of the diet in the 24 multi-well plate, for a total of four rates of application of candidate insecticide in each plate.
In each well of the test plate was placed one second instar tobacco budworm larvea, each weighing approximately five milligrams. After the larvae were placed in each well, the plate was sealed with clear polyfilm adhesive tape. The tape over each well was perforated to ensure an adequate air supply. The plates were then held in a growth chamber at 25° C. and 60% relative humidity for five days (light 14 hours/day).
After the five-day exposure period insecticidal activity for each rate of application of candidate insecticide was assessed as percent inhibition of insect weight relative to the weight of insects from untreated controls, and percent mortality when compared to the total number of insects infested.
The test compounds of formula I are identified by numbers that correspond to those in Table 1.

COC(=C[N+](=O)[O-])NCCN(CCCF)Cc1ccc(Cl)nc1 [Compound 1]
Percent Growth Inhibition: 100%

CSC(=C[N+](=O)[O-])NCCN(CCCF)Cc1ccc(Cl)nc1 [Compound 2]
Percent Growth Inhibition: 100%

CSC(=C[N+](=O)[O-])NCCN(CCC(F)(F)F)Cc1ccc(Cl)nc1 [Compound 3]
Percent Mortality: 50% | Percent Growth Inhibition: 96%

COCCN(CCNC(=C[N+](=O)[O-])SC)Cc1ccc(Cl)nc1 [Compound 4]
Percent Growth Inhibition: 100%

CCOCCN(CCNC(=C[N+](=O)[O-])SC)Cc1ccc(Cl)nc1 [Compound 5]
Percent Growth Inhibition: 100%

COCCOCCN(CCNC(=C[N+](=O)[O-])OC)Cc1ccc(Cl)nc1 [Compound 6]
Percent Growth Inhibition: 95%

COCCOCCN(CCNC(=C[N+](=O)[O-])SC)Cc1ccc(Cl)nc1 [Compound 7]
Percent Growth Inhibition: 99%

COCCOCCN(CCNC(=C[N+](=O)[O-])OCCOC)Cc1ccc(Cl)nc1 [Compound 8]
Percent Growth Inhibition: 100%

CSC(=C[N+](=O)[O-])NCCN(O)Cc1ccc(Cl)nc1 [Compound 9]
Percent Growth Inhibition: 91%

CSC(=C[N+](=O)[O-])NCCN(CC#N)Cc1ccc(Cl)nc1 [Compound 10]
Percent Mortality: 17% | Percent Growth Inhibition: 90%

CSC(=C[N+](=O)[O-])NCCN(Cc1ccc(Cl)nc1)CC1CCOC1 (stereo not drawn) [Compound 14]
Percent Growth Inhibition: 100%

CSC(=C[N+](=O)[O-])NCCN(Cc1ccc(Cl)nc1)CC1CCCCO1 (stereo not drawn) [Compound 15]
Percent Growth Inhibition: 85%

CSC(=C[N+](=O)[O-])NCCN(Cc1ccc(Cl)nc1)Cc1ccsc1 [Compound 17]
Percent Growth Inhibition: 99%

CSC(=C[N+](=O)[O-])NCCN(Cc1ccc(Cl)nc1)Cc1ccco1 [Compound 18]
Percent Growth Inhibition: 100%

CSC(=C[N+](=O)[O-])NCCN(Cc1ccc(Cl)nc1)Cc1ccoc1 [Compound 19]
Percent Growth Inhibition: 100%

CCN(CCNC(=C[N+](=O)[O-])OC)Cc1ccc(Cl)nc1 [Compound 41]
Percent Growth Inhibition: 100%

COC(=C[N+](=O)[O-])NCCN(Cc1ccc(Cl)nc1)Cc1ccc(Cl)nc1 [Compound 187]
Percent Growth Inhibition: 50%

CC(C)COC(=C[N+](=O)[O-])NCCN(Cc1ccc(Cl)nc1)Cc1ccc(Cl)nc1 [Compound 189]
Percent Growth Inhibition: 100%

O=[N+]([O-])C=C(NCCN(Cc1ccc(Cl)nc1)Cc1ccc(Cl)nc1)OCC1CCCCC1 [Compound 190]
Percent Growth Inhibition: 100%

CSC(=C[N+](=O)[O-])NCCN(Cc1cccnc1)Cc1ccc(Cl)nc1 [Compound 192]
Percent Growth Inhibition: 92%

CSC(=C[N+](=O)[O-])NCCN(Cc1ccc(Cl)nc1)Cc1ccc(Cl)nc1 [Compound 198]
Percent Growth Inhibition: 50%

CC(C)CSC(=C[N+](=O)[O-])NCCN(Cc1ccc(Cl)nc1)Cc1ccc(Cl)nc1 [Compound 202]
Percent Growth Inhibition: 100%

O=[N+]([O-])C=C(NCCN(Cc1ccc(Cl)nc1)Cc1ccc(Cl)nc1)SCC1CCCCC1 [Compound 203]
Percent Growth Inhibition: 100%

C=CCN(CCNC(=C[N+](=O)[O-])SC)Cc1ccc(Cl)nc1 [Compound 220]
Percent Growth Inhibition: 100%

C=CCN(CCNC(=C[N+](=O)[O-])SCC1CCCCC1)Cc1ccc(Cl)nc1 [Compound 221]
Percent Growth Inhibition: 100%

C=CCCN(CCNC(=C[N+](=O)[O-])SC)Cc1ccc(Cl)nc1 [Compound 222]
Percent Growth Inhibition: 100%

CC=CCN(CCNC(=C[N+](=O)[O-])SC)Cc1ccc(Cl)nc1 [Compound 223]
Percent Growth Inhibition: 98%

CSC(=C[N+](=O)[O-])NCCN(CC=CCl)Cc1ccc(Cl)nc1 [Compound 224]
Percent Growth Inhibition: 100%

C=C(Cl)CN(CCNC(=C[N+](=O)[O-])SC)Cc1ccc(Cl)nc1 [Compound 225]
Percent Growth Inhibition: 89%

CSC(=C[N+](=O)[O-])NCCN(CC=C(Cl)Cl)Cc1ccc(Cl)nc1 [Compound 228]
Percent Growth Inhibition: 100%

CSC(=C[N+](=O)[O-])NCCN(CCC(F)=C(F)F)Cc1ccc(Cl)nc1 [Compound 229]
Percent Growth Inhibition: 96%

CSC(=C[N+](=O)[O-])NCCN(CC=Cc1ccccc1)Cc1ccc(Cl)nc1 [Compound 230]
Percent Growth Inhibition: 88%

C=CCN(CCNC(=N[N+](=O)[O-])SC)Cc1ccc(Cl)nc1 [Compound 231]
Percent Growth Inhibition: 100%

C=CCN(CCNC(=C[N+](=O)[O-])OC)Cc1ccc(Cl)nc1 [Compound 242]
Percent Mortality: 83% | Percent Growth Inhibition: 96%

C#CCN(CCN/C(=C/[N+](=O)[O-])OC)Cc1ccc(Cl)nc1 [Compound 244]
Percent Mortality: 83% | Percent Growth Inhibition: 100%

C#CCN(CCNC(=C[N+](=O)[O-])OCC)Cc1ccc(Cl)nc1 [Compound 245]
Percent Growth Inhibition: 100%

C#CCN(CCNC(=C[N+](=O)[O-])OCCOC)Cc1ccc(Cl)nc1 [Compound 246]
Percent Growth Inhibition: 100%

C#CCN(CCNC(=C[N+](=O)[O-])OCCOCCOC)Cc1ccc(Cl)nc1 [Compound 247]
Percent Growth Inhibition: 100%

C#CCN(CCNC(=C[N+](=O)[O-])SC)Cc1ccc(Cl)nc1 [Compound 248, {2-[((1Z)-1-methylthio-2-nitrovinyl)amino]ethyl}[(6-chloro(3-pyridyl)methyl]prop-2-ynylamine]
Percent Mortality: 100% | Percent Growth Inhibition: 100%

C#CCCN(CCNC(=C[N+](=O)[O-])SC)Cc1ccc(Cl)nc1 [Compound 252]
Percent Growth Inhibition: 100%

CC#CCN(CCNC(=C[N+](=O)[O-])SC)Cc1ccc(Cl)nc1 [Compound 253]
Percent Growth Inhibition: 100%

CC#CCCN(CCNC(=C[N+](=O)[O-])SC)Cc1ccc(Cl)nc1 [Compound 254]
Percent Growth Inhibition: 100%

CCCCCC#CCN(CCNC(=C[N+](=O)[O-])SC)Cc1ccc(Cl)nc1 [Compound 255]
Percent Growth Inhibition: 88%

C#CCN(CCNC(=C[N+](=O)[O-])OCC1CCCCC1)Cc1ccc(Cl)nc1 [Compound 256]
Percent Growth Inhibition: 100%

C#CCN(CCNC(=C[N+](=O)[O-])SCC1CCCCC1)Cc1ccc(Cl)nc1 [Compound 257]
Percent Growth Inhibition: 100%

C#CCCN(CCNC(=C[N+](=O)[O-])SCC1CCCCC1)Cc1ccc(Cl)nc1 [Compound 258]
Percent Growth Inhibition: 100%

C#CCN(CCNC(=N[N+](=O)[O-])SC)Cc1ccc(Cl)nc1 [Compound 279]
Percent Growth Inhibition: 100%

CSC(=C[N+](=O)[O-])NCCN(CCC#Cc1ccc(Cl)cc1)Cc1ccc(Cl)nc1 [Compound 301]
Percent Growth Inhibition: 100%

CSC(=C[N+](=O)[O-])NCCN(CC#Cc1ccc(F)cc1)Cc1ccc(Cl)nc1 [Compound 302]
Percent Growth Inhibition: 97%

CSC(=C[N+](=O)[O-])NCCN(CC#Cc1cncnc1)Cc1ccc(Cl)nc1 [Compound 304]
Percent Growth Inhibition: 61%

O=[N+]([O-])C=C(NCCN(Cc1ccccc1)Cc1ccc(Cl)nc1)SCc1ccc(C(F)(F)F)cc1 [Compound 307]
Percent Growth Inhibition: 100%

COc1ccc(CN(CCNC(=N[N+](=O)[O-])SCc2ccccc2)Cc2ccc(Cl)nc2)cc1 [Compound 310]
Percent Growth Inhibition: 100%

COc1ccc(CN(CCNC(=N[N+](=O)[O-])SCc2ccc(Cl)cc2)Cc2ccc(Cl)nc2)cc1 [Compound 311]
Percent Growth Inhibition: 100%

O=[N+]([O-])C=C(NCCN(Cc1ccc(Cl)nc1)Cc1ccc(Cl)nc1)SCc1ccccc1Cl [Compound 314]
Percent Growth Inhibition: 100%

O=[N+]([O-])C=C(NCCN(Cc1ccc(Cl)nc1)Cc1ccc(Cl)nc1)SCc1cccc(Cl)c1 [Compound 315]
Percent Growth Inhibition: 98%

O=[N+]([O-])C=C(NCCN(Cc1ccc(Cl)nc1)Cc1ccc(Cl)nc1)SCc1c(F)c(F)c(F)c(F)c1F [Compound 318]
Percent Growth Inhibition: 100%

Cc1ccccc1CSC(=C[N+](=O)[O-])NCCN(Cc1ccc(Cl)nc1)Cc1ccc(Cl)nc1 [Compound 319]
Percent Growth Inhibition: 10%

Cc1cccc(CSC(=C[N+](=O)[O-])NCCN(Cc2ccc(Cl)nc2)Cc2ccc(Cl)nc2)c1 [Compound 320]
Percent Growth Inhibition: 96%

Cc1ccc(CSC(=C[N+](=O)[O-])NCCN(Cc2ccc(Cl)nc2)Cc2ccc(Cl)nc2)cc1 [Compound 321]
Percent Growth Inhibition: 100%

O=[N+]([O-])C=C(NCCN(Cc1ccc(Cl)nc1)Cc1ccc(Cl)nc1)SCc1ccccc1C(F)(F)F [Compound 322]
Percent Growth Inhibition: 100%

O=[N+]([O-])C=C(NCCN(Cc1ccc(Cl)nc1)Cc1ccc(Cl)nc1)SCc1cccc(C(F)(F)F)c1 [Compound 323]
Percent Growth Inhibition: 100%
